Reference: patent US11389434B2, “Methods and pharmaceutical compositions for the treatment of mast cell diseases” (INSERM (INSTITUT NATIONAL DE LA SANTE ET DE LA RECHERCHE …, priority 2017, dated 2022)

Legend:
ROSA KIT K417 = assay: Kinetic cell proliferation assay, IncuCyte Live Cell analysis system; assay type: cell-based, human; conditions: ROSA KIT K417, increasing doses (10 to 50 μM), 144 hours
mast cells = assay: Mast cell death by flow cytometry, 7-AAD viability staining; assay type: cell-based, human
Experimental: (§1) The human MCL-derived cell line HMC-1 was kindly provided by Dr. Michel Arock, Paris, France. Two sub-clones were used, namely HMC-1.1 expressing KIT V560G, and HMC-1.2 expressing KIT V560G and KIT D816V.
(§2) Human primary mast cells, patient's leukemic mast cells and ROSA KIT-WT cell line were cultured in Iscove's modified Dulbecco's Medium (IMDM)-Glutamax® (Invitrogen) supplemented with the penicillin/streptomycin 100 U/ml (P/S) (Invitrogen), 1% of sodium pyruvate (Invitrogen), 1% of vitamins (Invitrogen), 1% of glutamine (Invitrogen), 2% of non-essential amino acids (Invitrogen), 1% of a commercial solution of insulin-transferrin-sodium selenite (Invitrogen), 0.3% of albumin bovine (BSA) in presence of human SCF at 100 ng/ml (Milteny biotech). “ROSA KIT D816V”, “ROSA KIT Delta 417-419 insY” mast cells and HMC-1 lines which have mutated KIT receptor (CD117) grow in the same media described above but in absence of hSCF.
(§3) Kinetic cell proliferation assays were performed using the IncuCyte® Live Cell analysis system with 10 000 cells/well in triplicate and during one week in presence or absence of chemicals compounds, Gant61, Vismodegib and, individually or in combination, to determine their effect on mast cell proliferation. Compounds were added the first day at different doses and the media was not changed over the 7 days. At the end of the week, mast cells death was investigated by flow cytometry using 7-AAD viability staining solution.

ROSA KIT WT = assay: Kinetic cell proliferation assay, IncuCyte Live Cell analysis system; assay type: cell-based, human; conditions: increasing doses (10 to 50 μM), 144 hours
Experimental: as §1, §2, §3

ROSA KIT D816V = assay: as above; assay type: cell-based, human; conditions: increasing doses (10 to 50 μM), 144 hours
Experimental: as §1, §2, §3

GLI1 protein = assay: Western blot of GLI1 after stimulation with SMO agonist; assay type: cell-based; conditions: human MC lines (ROSA KIT WT, KIT D816V), purmorphamine 2 or 5 μM, 12 or 24 hours
Experimental: After an overnight starvation of 5 million cells from each kind of cells described above, cells were treated with different doses of chemical agonists (such as purmorfamine) or antagonists (such as Gant61) of HH pathway and for several time-laps. Cells were then collected to extract RNA or proteins to perform gene expression analysis by RT-qPCR or western blot analysis. Hedgehog genes Gli1-2-3, Smo, Patch receptors, SHH-IHH-DHH ligands and the tumor supressor Bcl2 gene were investigated. Hedgehog proteins (Gli1 and Gli3), proteins involved in apoptosis (Bcl2, caspase3, Bcl-xl) and in PI3K/AKT/mTOR pathway were investigated.

[1] = tested on: conventional PKC isoforms (α, β, and γ), Syk, FLK1, Akt, PKA, c-Kit, C-Fgr, c-Src, FLT3, PDFRβ, VEGFR1, and VEGFR2; conditions: several serine/threonine and tyrosine kinases; cited from earlier work
leukemic MC = assay: Leukemic mast cell death; assay type: cell-based, human; conditions: data not shown
Experimental: as §1, §2
as §3, with “At the end of the week, mast cells death was investigated by flow cytometry using 7-AAD viability staining solution.” left out

ROSA D816V = assay: Western blot of proteins associated with cell proliferation or apoptosis; assay type: cell-based, human; conditions: increasing doses
Experimental: as §1, §2
(§4) After an overnight starvation of 5 million cells from each kind of cells described above, cells were treated with different doses of chemical agonists (such as purmorfamine) or antagonists (such as Gant61) of HH pathway and for several time-laps. Cells were then collected to extract RNA or proteins to perform gene expression analysis by RT-qPCR or western blot analysis. […]

ROSA WT = assay: as above; assay type: cell-based, human; conditions: increasing doses
Experimental: as §1, §2, §4

Structure (SMILES): CS(=O)(=O)c1ccc(C(=O)Nc2ccc(Cl)c(-c3ccccn3)c2)c(Cl)c1 [vismodegib]
- proliferation (percentage of confluence) (ROSA KIT K417): prevented the proliferation
- induction of cell death compared with GANT61 (mast cells; whatever the cell type, data not shown): much less important
- proliferation (percentage of confluence) (ROSA KIT WT): prevented the proliferation
- proliferation (percentage of confluence) (ROSA KIT D816V): prevented the proliferation

Structure (SMILES): c1ccc2c(Oc3nc(Nc4ccc(N5CCOCC5)cc4)c4ncn(C5CCCCC5)c4n3)cccc2c1 [purmorphamine]
- GLI1 expression (GLI1 protein): clearly increased

Structure (SMILES): CO[C@@H]1[C@H](N(C)C(=O)c2ccccc2)C[C@H]2O[C@]1(C)n1c3ccccc3c3c4c(c5c6ccccc6n2c5c31)C(=O)NC4 [PKC 412, N-[(9S,10R,11R,13R)-2,3,10,11,12,13-hexahydro-10-methoxy-9-methyl-1-oxo-9,13-epoxy-1H,9H-diindolo[1,2,3-gh:3′,2′,1′-lm]pyrrolo[3,4-j][1,7]benzodiazonin-11-yl]-N-methyl-benzamide]
- IC50 [1]: 80 to 500 nM

Structure (SMILES): CN(C)c1ccccc1CN1CCCN(Cc2ccccc2N(C)C)C1c1ccncc1 [GANT61]
- proliferation (percentage of confluence) (ROSA KIT K417): inhibited
- leukemic MC death (leukemic MC): induced leukemic MC death
- Expression levels of mTOR, p-AKT, AKT, MYC, Caspase3, BCL2, and BCLX-L proteins (ROSA D816V): decreased
- Expression levels of mTOR, p-AKT, AKT, MYC, Caspase3, BCL2, and BCLX-L proteins (ROSA WT): decreased
- mast cells death (mast cells; GANT61 5 μM): 5%
- mast cells death (mast cells; GANT61 50 μM, data not shown): more than 90%
- proliferation (percentage of confluence) (ROSA KIT WT): inhibited
- proliferation (percentage of confluence) (ROSA KIT D816V): inhibited
